Data on nine molecules can be found in patent publication US4510136A (priority 1983, dated 1985).

The test system of series [1] is Pythium aphanadermatum. Description: Pythium control on cotton, seed coating (Example 91). It is filed as in vivo. The following applies: 168 h; for pest or weed control at 2 g/kg seed: 2 gm/kg seed. An excerpt: Several compounds of the previous examples were incorporated into a proprietary formulation and used to coat cotton seeds at a rate of 2 gm/kg seed. After being thoroughly coated, the seeds were allowed to air dry at room temperature. The cotton seeds were then planted into soil amended with the fungus Pythium aphanadermatum, sand, and corn meal at a rate sufficient to kill most untreated seeds. The seeds were held at room temperature for 1 week, after which time disease ratings were made.

Another series relates to Cercospora arachidicola. Description: Peanut early leafspot control on sprayed peanut seedlings (Example 84). It is filed as in vivo. As to conditions: Mycosphaerella arachidis, 360 h, 100 ppm spray, day before inoculation; read-out: % Control Peanut Easly Leafspot.
Series [2] relates to Pythium aphanadermatum. Kind of series: Pythium control on corn, seed coating (Example 92). In kind it is in vivo. The following applies: 504 h, 2 gm/kg seed. How it is done:
Several compounds of the previous examples were incorporated into a proprietary formulation and used to coat corn seeds at a rate of 2 gm/kg seed. After being thoroughly coated, the seeds were allowed to air dry at room temperature. The seeds were then planted into soil amended with a mixture of the fungus Pythium aphanadermatum, sand, and corn meal at a rate sufficient to kill most untreated seeds. The seeds were held at 49° F. for 2 weeks and then at 70° F. for 1 additional week. After this time disease ratings were made.

The test system of a further series is Venturia inaequalis. Description: Apple scab control on sprayed apple seedlings (Example 82). In kind it is in vivo. The following applies: Venturia inaequalis, 100 ppm spray, day before inoculation.
Series [3] deals with Puccinia recondita var. tritici. Description: Wheat leaf rust control on sprayed wheat seedlings (Example 79). It is filed as in vivo. As to conditions: Puccinia recondita, 168 h; 100 ppm spray, day before inoculation. In outline: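 Disease was scored as leaf rust pustules 7 days after a 24 h, 20° saturated-humidity incubation of seedlings inoculated with P. recondita var. tritici spores. Inoculation followed by one day a run-off spray of 100 ppm compound in water containing 6% acetone and 250 ppm TREM 014.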

The subject of a further series is Helminthosporium maydis. Description: Southern corn leaf blight control on sprayed corn seedlings (Example 83). In kind it is in vivo. The following applies: Bipolaris maydis, 192 h, 100 ppm spray, day before inoculation. The procedure, abridged:
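Corn seedlings were sprayed to run-off with 100 ppm suspensions (6% acetone, 250 ppm TREM 014) and spore-inoculated the following day. Disease and growth reduction were rated after 24 h saturated humidity at 20° plus 7 days in a growth room.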

Another series has as its system Monilinia fructicola. Kind of series: Stone fruit brown rot control on dipped canned peach halves (Example 86). The following applies: 120 h, 100 ppm dip, percent growth inhibition of colonies after five days. An excerpt: Several compounds of the previous examples were again dissolved in acetone in an amount equal to 5% of the final volume and then suspended at a concentration of 100 ppm in purified water containing 700 ppm of the surfactant TREM 014 (polyhydric alcohol esters). Canned peach halves were dipped in this suspension for three minutes and then placed to air dry in sterile containers. Upon drying, the peach halves were inoculated with two pieces of Monilinia fructicola mycelium, causal agent of stone fruit brown rot, and incubated in the sterile containers for five days. At that time the radii of the colonies' growth were measured on each peach. […] Percent disease control (percent growth inhibition of colonies on treated peaches as compared to that of colonies on untreated peaches) is expressed in the table below.

The subject of the next series is Erysiphe cichoracearum. Kind of series: Cucumber powdery mildew control on sprayed cucumber seedlings (Example 80). The following applies: Golovinomyces cichoracearum, 168 h, 100 ppm spray, day before inoculation. In kind it is in vivo.
The subject of the next series is Rhizoctonia solani. Description: Rice sheath blight control on sprayed rice seedlings (Example 87). In kind it is in vivo. The following applies: Rhizoctonia solani, 168 h, 100 ppm spray, day before inoculation. The procedure, abridged:
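Disease ratings followed 7 days' growth-room incubation of seedlings given a bran/R. solani mycelium inoculum. Inoculation took place one day after spraying to run-off. The spray was a 100 ppm compound suspension in water containing 6% acetone and 250 ppm TREM 014.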

For another series, the system named is Phytophthora infestans. Kind of series: whole plant or invertebrate. In kind it is in vivo. As to conditions: Phytophthora infestans, in Solanum lycopersicum, 168 h, read-out: % Control of Tomato Late Blight, 100 ppm spray, day before inoculation.
The subject of a further series is 5 Phytophthora species. It is filed as cell-based. As to conditions: 200.0 ppm in V-8 agar, 22° C., 6 days.
Another series concerns Erysiphe graminis. Description: Barley powdery mildew control on sprayed barley seedlings (Example 81). In kind it is in vivo. As to conditions: Blumeria graminis, 168 h; 100 ppm spray, day before inoculation. As to the method: The compounds of the previous examples were again dissolved in acetone in an amount equal to 6% of the final volume and then suspended at a concentration of 100 ppm in purified water containing 250 ppm of the surfactant TREM 014 (polyhydric alcohol esters). These suspensions were sprayed to the point of run-off on barley seedlings. The following day, the plants were inoculated with a spore suspension of the fungus Erysiphe graminis, causal agent of barley powdery mildew, and incubated in growth room for 7 days. Disease ratings were then made. Treated plants from successful treatments had little or no powdery mildew in contrast to untreated plants which were covered with powdery mildew.

A further series concerns Pyricularia oryzae. Kind of series: whole plant or invertebrate. As to conditions: Pyricularia oryzae, 168 h, read-out: % Control of Rice Blast, 100 ppm spray, day before inoculation. It is filed as in vivo.
For a further series, the system named is apple seedlings. Description: Phytotoxicity on apple seedlings (Example 82). The following applies: 100 ppm spray. Details: key: G = growth reduction; H = hormonal effects. It is filed as in vivo. As to the method: These suspensions were sprayed to the point of run-off on apple seedlings. The following day, the plants were inoculated with a spore suspension of the fungus Venturia inaequalis, causal agent of apple scab, and incubated in a saturated humidity chamber at 20° for 24 hours and then in a growth room for an additional 10-12 days. Treated plants from successful treatments had fewer apple scab lesions when compared to untreated plants which were covered with scab lesions. Phytotoxicity expressed as growth reduction was observed on some of the plants in association with disease control.

The next series concerns cucumber seedlings. Kind of series: Phytotoxicity on cucumber seedlings (Example 80). As to conditions: 100 ppm spray. In kind it is in vivo. Set-up: key: G = growth reduction; H = hormonal effects. How it is done: The compounds of the previous example were again dissolved in acetone in an amount equal to 6% of the final volume and then suspended at a concentration of 100 ppm in purified water containing 250 ppm of the surfactant TREM 014 (polyhydric alcohol esters). These suspensions were sprayed to the point of run-off, on cucumber seedlings. The following day, the plants were inoculated with a spore suspension of the fungus Erysiphe cichoracearum, causal agent of cucumber powdery mildew, and incubated in a growth room for 7 days. Disease ratings were then made. Treated plants from successful treatments had little or no powdery mildew in contrast to untreated plants which were covered with powdery mildew. Phytotoxicity in the form of growth reduction or hormonal effects was observed on some of the plants in association with disease control.

The structures appear in SMILES notation.

In the case of `C[Si](C)(Cn1cncn1)c1ccc(-c2ccccc2)cc1` [(1,1'-Biphenyl-4-yl)dimethyl(1H-1,2,4-triazol-1-ylmethyl)silane], the pest or weed control at 2 g/kg seed is 12% in the series on Pythium aphanadermatum [1] and 30% in the series on Pythium aphanadermatum [2]. The pest or weed control at 100 ppm stood at 100% in the series with Cercospora arachidicola; 100% in the series on Venturia inaequalis; 100% in [3]; 90% in the series on Helminthosporium maydis; 100% in the series with Erysiphe cichoracearum. Moreover, testing at 100 µg/mL in the series with Monilinia fructicola gave an inhibition of growth of 100%.
As to `C[Si](C)(Cn1cncn1)c1ccc(Cl)c(Cl)c1` [(3,4-Dichlorophenyl)dimethyl(1H-1,2,4-triazol-1-ylmethyl)silane], the pest or weed control at 100 ppm came out at 80% in the series on Rhizoctonia solani; 0% in the series on Cercospora arachidicola; 0% in the series with Phytophthora infestans; 80% in the series with Venturia inaequalis; 60% in series [3]; 90% with Helminthosporium maydis. The pest or weed control at 100 ppm stood at 100% in the series with Erysiphe graminis, 0% in the series with Pyricularia oryzae and 100% in the series with Erysiphe cichoracearum. For the same molecule, in the series on Pythium aphanadermatum [2], the pest or weed control at 2 g/kg seed was 43%. For the same molecule, the “No. of 5 Phytophthora species controlled in vitro” value in the series on 5 Phytophthora species came out at 2.
For `C[Si](C)(Cn1cncn1)c1ccc(Br)cc1` [(4-Bromophenyl)dimethyl(1H-1,2,4-triazol-1-ylmethyl)silane], the pest or weed control at 100 ppm in the series on Cercospora arachidicola worked out at 0%; with Phytophthora infestans, 0%; with Venturia inaequalis, 90%; in series [3] it was 80%; in the series with Helminthosporium maydis it was 90%; in the series with Pyricularia oryzae, 0%. Further, in the series on Erysiphe cichoracearum, the pest or weed control at 100 ppm amounted to 100%. Besides, in the series on apple seedlings, the Phytotoxicity on apple entry is given as “G”. Also, the Phytotoxicity on cucumber entry with cucumber seedlings was “G”.
In the case of `CCCC[Si](C)(Cn1cncn1)c1ccc(F)cc1` (stereo not drawn) [Butyl(4-fluorophenyl)methyl(1H-1,2,4-triazol-1-ylmethyl)silane], the pest or weed control at 100 ppm with Rhizoctonia solani was found to be 80%; with Cercospora arachidicola, 0%; in the series on Phytophthora infestans it was 0%; in the series on Venturia inaequalis, 100%; in series [3] it was 0%; in the series with Helminthosporium maydis, 0%. Also, the pest or weed control at 100 ppm in the series with Pyricularia oryzae and in the series on Erysiphe cichoracearum was 100% throughout. Moreover, the pest or weed control at 2 g/kg seed with Pythium aphanadermatum [1] and in the series with Pythium aphanadermatum [2] was 0% each time. In the series on Monilinia fructicola, this molecule came in with an inhibition of growth at 100 µg/mL of 100%.
On to `CCCC[Si](C)(C)Cn1cncn1` [Butyldimethyl(1H-1,2,4-triazol-1-ylmethyl)silane], for which the pest or weed control at 2 g/kg seed in the series with Pythium aphanadermatum [1] and with Pythium aphanadermatum [2] was 0% each time. The pest or weed control at 100 ppm (in the series with Cercospora arachidicola; with Phytophthora infestans; with Venturia inaequalis; in series [3]; in the series with Helminthosporium maydis; in the series on Pyricularia oryzae) was 0% in each case. For the same molecule, in the series with Erysiphe cichoracearum, the pest or weed control at 100 ppm was found to be 100%. The “No. of 5 Phytophthora species controlled in vitro” value with 5 Phytophthora species came to 1. In the series with Monilinia fructicola, the inhibition of growth at 100 µg/mL was found to be 95%.
Turning to `C[Si](C)(Cn1cncn1)c1cccc2ccccc12` [Dimethyl(1-naphthalenyl)(1H-1,2,4-triazol-1-ylmethyl)silane], the pest or weed control at 100 ppm in the series on Rhizoctonia solani came to 0%; in the series on Cercospora arachidicola it was 90%; with Phytophthora infestans it was 0%; in the series with Venturia inaequalis, 50%; in [3], 0%; with Helminthosporium maydis, 0%. Besides, the values for the pest or weed control at 100 ppm in the series on Erysiphe graminis, in the series on Pyricularia oryzae and in the series on Erysiphe cichoracearum were 0%, 70% and 100%, respectively. This molecule displayed a pest or weed control at 2 g/kg seed with Pythium aphanadermatum [2] of 30%.
Take `C[Si](C)(Cn1cncn1)c1ccc(Oc2ccccc2)cc1` [Dimethyl(4-phenoxyphenyl)(1H-1,2,4-triazol-1-ylmethyl)silane]: the pest or weed control at 100 ppm in the series on Rhizoctonia solani amounted to 0%; in the series with Cercospora arachidicola, 0%; with Phytophthora infestans, 50%; with Venturia inaequalis, 100%; in [3], 0%; in the series on Helminthosporium maydis, 0%. Besides, the pest or weed control at 100 ppm with Erysiphe graminis is 0%; in the series on Pyricularia oryzae, 0%; in the series with Erysiphe cichoracearum, 70%. In the series with Pythium aphanadermatum [1] (0.5 gm/kg seed), the pest or weed control at 0.5 g/kg seed was 18%. In the series with Pythium aphanadermatum [2], this molecule had a pest or weed control at 2 g/kg seed of 0%. In addition, the “No. of 5 Phytophthora species controlled in vitro” value with 5 Phytophthora species was found to be 0.
Consider `C[Si](Cn1cncn1)(c1ccccc1)c1ccccc1` [Methyldiphenyl(1H-1,2,4-triazol-1-ylmethyl)silane], for which the pest or weed control at 100 ppm stood at 0% in the series with Rhizoctonia solani; 100% in the series on Cercospora arachidicola; 0% with Phytophthora infestans; 100% in the series on Venturia inaequalis; 0% in series [3]; 80% with Helminthosporium maydis. The pest or weed control at 100 ppm with Erysiphe graminis amounted to 100%; with Pyricularia oryzae, 0%; in the series on Erysiphe cichoracearum, 100%. For the same molecule, the pest or weed control at 2 g/kg seed in the series on Pythium aphanadermatum [1] and in the series with Pythium aphanadermatum [2] was 0% in each case. For the same molecule, in the series on cucumber seedlings, the Phytotoxicity on cucumber result is given as “G”.
Regarding `C[Si](C)(Cn1cncn1)c1ccc(Oc2ccc(Cl)cc2)cc1` [[4-(4-Chlorophenoxy)phenyl]dimethyl(1H-1,2,4-triazol-1-ylmethyl)silane], the pest or weed control at 100 ppm came to 0% in the series on Rhizoctonia solani; 0% in the series on Cercospora arachidicola; 50% in the series with Phytophthora infestans; 100% in the series with Venturia inaequalis; 90% in series [3]; 50% in the series on Helminthosporium maydis. The results for the pest or weed control at 100 ppm in the series on Pyricularia oryzae and with Erysiphe cichoracearum were 0% and 80%, respectively. Moreover, in the series on 5 Phytophthora species, the “No. of 5 Phytophthora species controlled in vitro” value is recorded as 0.
